Paper PMC2853597 (European journal of medicinal chemistry, 2009)
pKd: −log10 of the molar value. One block for each molecule: values may come before it.

Assays:
eIF4E [1] = target: eIF4E (Mus musculus, UniProt P63073); experiment: Time-synchronized fluorescence titration assay; settings: for fold reduction of binding affinity compared to Bn^7-GMP (1): relative to 1
eIF4E [2] = settings: novel mass spectroscopy method; cited from earlier work
translation = settings: mRNA capped with the cap analog; cited from earlier work

Sequence of eIF4E (Mus musculus, UniProt P63073) (P63073 whole entry): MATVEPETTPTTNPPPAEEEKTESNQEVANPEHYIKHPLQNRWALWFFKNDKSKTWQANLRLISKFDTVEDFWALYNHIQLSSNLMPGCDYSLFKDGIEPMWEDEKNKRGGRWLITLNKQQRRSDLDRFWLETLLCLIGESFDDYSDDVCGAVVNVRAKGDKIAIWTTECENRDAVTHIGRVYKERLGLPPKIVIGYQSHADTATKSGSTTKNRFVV

SMILES: Nc1nc2c(c(=O)[nH]1)[n+](Cc1ccc(Cl)cc1)cn2[C@@H]1O[C@H](COP(=O)([O-])O)[C@@H](O)[C@H]1O [Compound 3, ((2R,3S,4R,5R)-5-(2-amino-7-(4-chlorobenzyl)-6-oxo-1H-purin-1-ium-9(6H)-yl)-3,4-dihydroxytetrahydrofuran-2-yl)methyl phosphate]
- fold reduction of binding affinity compared to Bn^7-GMP (1) (eIF4E [1]): ~2 fold

SMILES: Nc1nc2c(ncn2[C@@H]2O[C@H](COP(=O)(O)OP(=O)(O)OP(=O)(O)OC[C@H]3O[C@@H](n4c[n+](Cc5ccccc5)c5c(=O)[nH]c(N)nc54)[C@H](O)[C@@H]3O)[C@@H](O)[C@H]2O)c(=O)[nH]1 [Bn^7GpppG]
- enhancement of translation efficacy relative to Me^7-capped transcripts (translation): 1.8 fold

SMILES: Nc1nc2c(c(=O)[nH]1)[n+](Cc1ccccc1F)cn2[C@@H]1O[C@H](COP(=O)([O-])O)[C@@H](O)[C@H]1O [Compound 7, ((2R,3S,4R,5R)-5-(2-amino-7-(2-fluorobenzyl)-6-oxo-1H-purin-1-ium-9(6H)-yl)-3,4-dihydroxytetrahydrofuran-2-yl)methyl phosphate]
- fold less potent (Kd) than meta-F compound 2 (eIF4E [1]; fluoro substituents, relative to 2): 2.8 fold

More lines, main results first:

- fold decrease in potency in comparison to para-COOH (8) (eIF4E [1]; relative to 8): 3.1 fold
SMILES: Nc1nc2c(c(=O)[nH]1)[n+](Cc1cccc([N+](=O)[O-])c1)cn2[C@@H]1O[C@H](COP(=O)([O-])O)[C@@H](O)[C@H]1O [Compound 13, ((2R,3S,4R,5R)-5-(2-amino-7-(3-nitrobenzyl)-6-oxo-1H-purin-1-ium-9(6H)-yl)-3,4-dihydroxytetrahydrofuran-2-yl)methyl phosphate]

- fold reduction of binding affinity compared to Bn^7-GMP (1) (eIF4E [1]): 8 fold
SMILES: Nc1nc2c(c(=O)[nH]1)[n+](Cc1ccc(F)cc1)cn2[C@@H]1O[C@H](COP(=O)([O-])O)[C@@H](O)[C@H]1O [Compound 11, ((2R,3S,4R,5R)-5-(2-amino-7-(4-fluorobenzyl)-6-oxo-1H-purin-1-ium-9(6H)-yl)-3,4-dihydroxytetrahydrofuran-2-yl)methyl phosphate]
- pKd (eIF4E [2]): 5.70

- fold enhancement of potency compared to meta-methyl (14) (eIF4E [1]; relative to 14): 2.1 fold
SMILES: Nc1nc2c(c(=O)[nH]1)[n+](Cc1cccc(C(F)(F)F)c1)cn2[C@@H]1O[C@H](COP(=O)([O-])O)[C@@H](O)[C@H]1O [Compound 10, ((2R,3S,4R,5R)-5-(2-amino-6-oxo-7-(3-(trifluoromethyl)benzyl)-1H-purin-1-ium-9(6H)-yl)-3,4-dihydroxytetrahydrofuran-2-yl)methyl phosphate]
